According to PubChem BioAssay AID1918937 (Molecular Pharmacology Branch, DTP, NCI, 2023):
“And” between values parts separate entries of the source, which are not always exact repeats. Equal values may be shown once.

System: 521955-158-R2-J5-PDC complex spheroid viability
Test: Anticancer human tumor 521955-158-R2-J5-PDC patient-derived pancreatic carcinoma cell line growth inhibition
Settings: for viability, T/C: stronger effect = lower value
Outline: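 Drug combinations with the LSD1 inhibitor iadademstat tested on tumor cells co-cultured as spheroids with endothelial cells and mesenchymal stem cells. Concentrations descended in half-log increments from clinical Cmax or 10 microM.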

[1] = curve of first compound, second compound 0.1 µM
[2] = curve of first compound, second compound 0.316 µM
[3] = curve of first compound, second compound 1 µM
[4] = curve of first compound, second compound 3.16 µM
[5] = curve of first compound, second compound 10 µM
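Also: spheroids exposed to agents for seven days.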
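For viability, T/C in this document: percent of DMSO vehicle control luminescence viability.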

Q: What does the source list for `NS(=O)(=O)OCC1CC(n2ccc3c(NC4CCc5ccccc54)ncnc32)CC1O` (configuration not stated) + NC1CC1c1ccc(-c2cccc(O)c2)cc1?
A: IC50 [1]: 66.1 nM; IC50 [2]: 62.9 nM; IC50 [3]: 52.8 nM; IC50 [4]: 54.3 nM; IC50 [5]: 40.8 nM; viability, T/C (second compound 0.1 µM, first compound 0.00949 µM): 96.4%; viability, T/C (second compound 0.1 µM, first compound 0.03 µM): 72.8%; viability, T/C (second compound 0.1 µM, first compound 0.0949 µM): 38.5%; viability, T/C (second compound 0.1 µM, first compound 0.3 µM): 22.4%; viability, T/C (second compound 0.1 µM, first compound 0.949 µM): 16.1%; viability, T/C (second compound 0.1 µM, first compound 3 µM): 11%; viability, T/C (second compound 0.316 µM, first compound 0.00949 µM): 117%; viability, T/C (second compound 0.316 µM, first compound 0.03 µM): 71.1%; viability, T/C (second compound 0.316 µM, first compound 0.0949 µM): 38.3%; viability, T/C (second compound 0.316 µM, first compound 0.3 µM): 21.7%; viability, T/C (second compound 0.316 µM, first compound 0.949 µM): 17.4%; viability, T/C (second compound 0.316 µM, first compound 3 µM): 12.3%; viability, T/C (second compound 1 µM, first compound 0.00949 µM): 111%; viability, T/C (second compound 1 µM, first compound 0.03 µM): 62.5%; viability, T/C (second compound 1 µM, first compound 0.0949 µM): 37.6%; viability, T/C (second compound 1 µM, first compound 0.3 µM): 21.2%; viability, T/C (second compound 1 µM, first compound 0.949 µM): 16.7%; viability, T/C (second compound 1 µM, first compound 3 µM): 11.5%; viability, T/C (second compound 3.16 µM, first compound 0.00949 µM): 120%; viability, T/C (second compound 3.16 µM, first compound 0.03 µM): 63.6%; viability, T/C (second compound 3.16 µM, first compound 0.0949 µM): 38.1%; viability, T/C (second compound 3.16 µM, first compound 0.3 µM): 21.3%; viability, T/C (second compound 3.16 µM, first compound 0.949 µM): 17.7%; viability, T/C (second compound 3.16 µM, first compound 3 µM): 14.1%; viability, T/C (second compound 10 µM, first compound 0.00949 µM): 83.7%; viability, T/C (second compound 10 µM, first compound 0.03 µM): 54.5%; viability, T/C (second compound 10 µM, first compound 0.0949 µM): 37.5%; viability, T/C (second compound 10 µM, first compound 0.3 µM): 23.9%; viability, T/C (second compound 10 µM, first compound 0.949 µM): 21%; viability, T/C (second compound 10 µM, first compound 3 µM): 16%

Q: With `O=C(c1cc(Cc2n[nH]c(=O)c3ccccc23)ccc1F)N1CCN(C(=O)C2CC2)CC1` as the molecule, how does the viability, T/C (compound 0.0316 µM) read?
A: 95.7% and 102%

Q: And the viability, T/C (compound 0.1 µM)?
A: 103% and 100%

Q: And the viability, T/C (compound 0.316 µM)?
A: 100% and 104%

Q: And the viability, T/C (compound 1 µM)?
A: 100% and 97.1%

Q: And the viability, T/C (compound 3.16 µM)?
A: 90.8% and 96.1%

Q: And the viability, T/C (compound 10 µM)?
A: 55.5% and 78.5%

Q: What about the IC50 (curve of compound) of the same molecule?
A: > 10000 nM

Q: `O=C(C=Cn1cnc(-c2cc(C(F)(F)F)cc(C(F)(F)F)c2)n1)NNc1cnccn1` was tested. Which viability, T/C (compound 0.00316 µM) did it give?
A: 44% and 57%

Q: What about the viability, T/C (compound 0.01 µM) of the same molecule?
A: 36.4% and 61.1%

Q: What about the viability, T/C (compound 0.0316 µM) of the same molecule?
A: 40.2% and 68%

Q: And the viability, T/C (compound 0.1 µM)?
A: 31.9% and 73.8%

Q: What about the viability, T/C (compound 0.316 µM) of the same molecule?
A: 15.7% and 36.3%

Q: And the viability, T/C (compound 1 µM)?
A: 11.8% and 16.6%

Q: For `CC1COCCN1c1cc(C2(S(C)(=N)=O)CC2)nc(-c2ccnc3[nH]ccc23)n1` (configuration not stated), which viability, T/C (compound 0.0316 µM) is on record?
A: 108% and 112%

Q: And the viability, T/C (compound 0.1 µM)?
A: 102% and 100%

Q: What about the viability, T/C (compound 0.316 µM) of the same molecule?
A: 94.3% and 111%

Q: And the viability, T/C (compound 1 µM)?
A: 13.1% and 18.6%

Q: And the viability, T/C (compound 3.16 µM)?
A: 9.05% and 12.5%

Q: What about the viability, T/C (compound 10 µM) of the same molecule?
A: 13.5% and 17.8%

Q: What about the IC50 (curve of compound) of the same molecule?
A: 593 nM and 655 nM

Q: With `CCc1c2c(nc3ccc(O)cc13)-c1cc3c(c(=O)n1C2)COC(=O)[C@]3(O)CC` as the molecule, how does the viability, T/C (compound 0.000949 µM) read?
A: 4.87% and 6%

Q: And the viability, T/C (compound 0.003 µM)?
A: 3.58% and 4.94%

Q: And the viability, T/C (compound 0.00949 µM)?
A: 1.12% and 1.08%

Q: What about the viability, T/C (compound 0.03 µM) of the same molecule?
A: 0.53% and 1.39%

Q: What about the viability, T/C (compound 0.0949 µM) of the same molecule?
A: 0.45% and 1.25%

Q: What about the viability, T/C (compound 0.3 µM) of the same molecule?
A: 0.6% and 1.68%

Q: And the IC50 (curve of compound)?
A: < 0.949 nM

Q: With `COc1cc(Nc2ncc3c(n2)-c2ccc(Cl)cc2C(c2c(F)cccc2OC)=NC3)ccc1C(=O)O` + NC1CCC(NC2CC2c2ccccc2)CC1 as the molecule, how does the IC50 [1] read?
A: 5.87 nM

Q: What about the IC50 [2] of the same molecule?
A: 34 nM

Q: What about the IC50 [3] of the same molecule?
A: 74.5 nM

Q: And the IC50 [4]?
A: 15.2 nM

Q: And the IC50 [5]?
A: 42.1 nM

Q: And the viability, T/C (second compound 0.1 µM, first compound 0.00316 µM)?
A: 49.1%

Q: And the viability, T/C (second compound 0.1 µM, first compound 0.01 µM)?
A: 54.5%

Q: What about the viability, T/C (second compound 0.1 µM, first compound 0.0316 µM) of the same molecule?
A: 45.8%

Q: What about the viability, T/C (second compound 0.1 µM, first compound 0.1 µM) of the same molecule?
A: 41.7%

Q: What about the viability, T/C (second compound 0.1 µM, first compound 0.316 µM) of the same molecule?
A: 44.8%

Q: And the viability, T/C (second compound 0.1 µM, first compound 1 µM)?
A: 46.7%

Q: And the viability, T/C (second compound 0.316 µM, first compound 0.00316 µM)?
A: 54.4%

Q: What about the viability, T/C (second compound 0.316 µM, first compound 0.01 µM) of the same molecule?
A: 56.7%

Q: And the viability, T/C (second compound 0.316 µM, first compound 0.0316 µM)?
A: 50.3%

Q: And the viability, T/C (second compound 0.316 µM, first compound 0.1 µM)?
A: 45%

Q: What about the viability, T/C (second compound 0.316 µM, first compound 0.316 µM) of the same molecule?
A: 45.2%

Q: And the viability, T/C (second compound 0.316 µM, first compound 1 µM)?
A: 46.2%

Q: What about the viability, T/C (second compound 1 µM, first compound 0.00316 µM) of the same molecule?
A: 45.7%

Q: What about the viability, T/C (second compound 1 µM, first compound 0.01 µM) of the same molecule?
A: 54.1%

Q: What about the viability, T/C (second compound 1 µM, first compound 0.0316 µM) of the same molecule?
A: 51.5%

Q: And the viability, T/C (second compound 1 µM, first compound 0.1 µM)?
A: 49.8%

Q: And the viability, T/C (second compound 1 µM, first compound 0.316 µM)?
A: 41.8%

Q: And the viability, T/C (second compound 1 µM, first compound 1 µM)?
A: 38%

Q: And the viability, T/C (second compound 3.16 µM, first compound 0.00316 µM)?
A: 55.2%

Q: And the viability, T/C (second compound 3.16 µM, first compound 0.01 µM)?
A: 50.2%

Q: What about the viability, T/C (second compound 3.16 µM, first compound 0.0316 µM) of the same molecule?
A: 50.1%

Q: And the viability, T/C (second compound 3.16 µM, first compound 0.1 µM)?
A: 44.9%

Q: And the viability, T/C (second compound 3.16 µM, first compound 0.316 µM)?
A: 39.1%

Q: What about the viability, T/C (second compound 3.16 µM, first compound 1 µM) of the same molecule?
A: 41.8%

Q: What about the viability, T/C (second compound 10 µM, first compound 0.00316 µM) of the same molecule?
A: 48.8%

Q: What about the viability, T/C (second compound 10 µM, first compound 0.01 µM) of the same molecule?
A: 53.9%

Q: What about the viability, T/C (second compound 10 µM, first compound 0.0316 µM) of the same molecule?
A: 50.5%

Q: What about the viability, T/C (second compound 10 µM, first compound 0.1 µM) of the same molecule?
A: 46.9%

Q: And the viability, T/C (second compound 10 µM, first compound 0.316 µM)?
A: 36.2%

Q: And the viability, T/C (second compound 10 µM, first compound 1 µM)?
A: 36.7%
